Results as given in publication PMC10041525, “New Dual Inhibitors of Bacterial Topoisomerases with Broad-Spectrum Antibacterial Activity and In Vivo Efficacy against Vancomycin-Intermediate Staphylococcus aureus” (Journal of Medicinal Chemistry, 2023).
In brackets after ≈: the same amount, converted by molar mass. Like-named read-outs stand apart in the source and are kept apart here.

Key:
Format in all cases: cell-based
[1] = tested on: 100 A. baumannii strains (50 MDR, 50 non-MDR); assay: MIC broth microdilution at IHMA Europe, panel of 100 strains; settings: for MIC / MIC50 / MIC90: Acinetobacter baumannii; for MIC50: read-out: MIC 50; for MIC90: read-out: MIC 90
[2] = tested on: H. influenzae ATCC 49247; assay: IHMA QC MIC
Excerpt: (§1) Supplement jm2c01905_si_004.xlsx, sheet "QC" | column: MIC [µg/mL]

[3] = tested on: H. influenzae ATCC 49766; assay: IHMA QC MIC
Excerpt: as §1

[4] = tested on: E. faecalis ATCC 29212; assay: IHMA QC MIC
Excerpt: as §1

[5] = tested on: N. gonorrhoeae ATCC 49226; assay: IHMA QC MIC; settings: Neisseria gonorrhoeae, ATCC49226
Excerpt: as §1

[6] = tested on: S. pneumoniae ATCC 49619; assay: IHMA QC MIC
Excerpt: as §1

[7] = tested on: E. coli ATCC 25922; assay: IHMA QC MIC; settings: QC strain E. coli ATCC 25922, test date 2021-11-26
[8] = tested on: A. baumannii ATCC 17978; assay: IHMA QC MIC
Description: (§2) The panel of Hungarian clinical isolates and controls measured following the same method as detailed above, and albeit measurements were carried out in 384-well microtiter plates (Corning Inc.).

[9] = tested on: E. coli ATCC 35218; assay: IHMA QC MIC; settings: Escherichia coli, ATCC35218, read-out: MIC (QC, repeated tests)
Description: as §2

[10] = tested on: P. aeruginosa ATCC 27853; assay: IHMA QC MIC; settings: for MIC: Pseudomonas aeruginosa

Compound: Cc1[nH]c(C(=O)Nc2nc3c(N4[C@@H]5CC[C@H]4COC5)cc(C(=O)O)cc3s2)c(Cl)c1Cl [7h, 4-((1R,5S)-3-Oxa-8-azabicyclo[3.2.1]octan-8-yl)-2-(3,4-dichloro-5-methyl-1H-pyrrole-2-carboxamido)benzo[d]thiazole-6-carboxylic Acid]
- MIC ([1]; A. baumannii IHMA 2180134, Malaysia 2020, Non-MDR, read-out: MIC): 2 µg/mL (≈ 4.15 µM)
- MIC ([1]; A. baumannii IHMA 2180142, Malaysia 2020, MDR, read-out: MIC): 2 µg/mL (≈ 4.15 µM)
- MIC ([1]; A. baumannii IHMA 2181370, Morocco 2020, MDR, read-out: MIC): 2 µg/mL (≈ 4.15 µM)
- MIC ([1]; A. baumannii IHMA 2183729, Argentina 2020, MDR, read-out: MIC): 4 µg/mL (≈ 8.31 µM)
- MIC ([1]; A. baumannii IHMA 2183849, Argentina 2020, Non-MDR, read-out: MIC): 2 µg/mL (≈ 4.15 µM)
- MIC ([1]; A. baumannii IHMA 2184382, Japan 2020, Non-MDR, read-out: MIC): 2 µg/mL (≈ 4.15 µM)
- MIC ([1]; A. baumannii IHMA 2193375, Venezuela 2020, MDR, read-out: MIC): 2 µg/mL (≈ 4.15 µM)
- MIC ([1]; A. baumannii IHMA 2193485, Venezuela 2020, Non-MDR, read-out: MIC): 1 µg/mL (≈ 2.08 µM)
- MIC ([1]; A. baumannii IHMA 2193607, Venezuela 2020, MDR, read-out: MIC): 2 µg/mL (≈ 4.15 µM)
- MIC ([1]; A. baumannii IHMA 2195460, Italy 2020, MDR, read-out: MIC): 2 µg/mL (≈ 4.15 µM)
- MIC ([1]; A. baumannii IHMA 2196914, South Africa 2020, MDR, read-out: MIC): 2 µg/mL (≈ 4.15 µM)
- MIC ([1]; A. baumannii IHMA 2196959, South Africa 2020, MDR, read-out: MIC): 2 µg/mL (≈ 4.15 µM)
- MIC ([1]; A. baumannii IHMA 2203763, Spain 2020, MDR, read-out: MIC): 4 µg/mL (≈ 8.31 µM)
- MIC ([1]; A. baumannii IHMA 2205144, Korea, South 2020, MDR, read-out: MIC): 2 µg/mL (≈ 4.15 µM)
- MIC ([1]; A. baumannii IHMA 2206459, Taiwan 2020, MDR, read-out: MIC): 2 µg/mL (≈ 4.15 µM)
- MIC ([1]; A. baumannii IHMA 2206507, Taiwan 2020, Non-MDR, read-out: MIC): 1 µg/mL (≈ 2.08 µM)
- MIC ([1]; A. baumannii IHMA 2212575, Hungary 2020, Non-MDR, read-out: MIC): 4 µg/mL (≈ 8.31 µM)
- MIC ([1]; A. baumannii IHMA 2215307, Hong Kong 2020, Non-MDR, read-out: MIC): 2 µg/mL (≈ 4.15 µM)
- MIC ([1]; A. baumannii IHMA 2216586, Taiwan 2020, MDR, read-out: MIC): 2 µg/mL (≈ 4.15 µM)
- MIC ([1]; A. baumannii IHMA 2223200, Colombia 2020, Non-MDR, read-out: MIC): 2 µg/mL (≈ 4.15 µM)
- MIC ([1]; A. baumannii IHMA 2224017, Panama 2020, MDR, read-out: MIC): 4 µg/mL (≈ 8.31 µM)
- MIC ([1]; A. baumannii IHMA 2224303, Panama 2020, Non-MDR, read-out: MIC): 4 µg/mL (≈ 8.31 µM)
- MIC ([1]; A. baumannii IHMA 2231797, Greece 2020, MDR, read-out: MIC): 2 µg/mL (≈ 4.15 µM)
- MIC ([1]; A. baumannii IHMA 2233099, Guatemala 2020, MDR, read-out: MIC): 4 µg/mL (≈ 8.31 µM)
- MIC ([1]; A. baumannii IHMA 2233430, Kazakhstan 2020, MDR, read-out: MIC): 2 µg/mL (≈ 4.15 µM)
- MIC ([1]; A. baumannii IHMA 2233548, Kazakhstan 2020, Non-MDR, read-out: MIC): 4 µg/mL (≈ 8.31 µM)
- MIC ([1]; A. baumannii IHMA 2238964, Thailand 2020, MDR, read-out: MIC): 4 µg/mL (≈ 8.31 µM)
- MIC ([1]; A. baumannii IHMA 2239052, Thailand 2020, Non-MDR, read-out: MIC): 4 µg/mL (≈ 8.31 µM)
- MIC ([1]; A. baumannii IHMA 2261047, Belgium 2020, MDR, read-out: MIC): 4 µg/mL (≈ 8.31 µM)
- MIC ([1]; A. baumannii IHMA 2261633, Canada 2020, Non-MDR, read-out: MIC): 4 µg/mL (≈ 8.31 µM)
- MIC ([1]; A. baumannii IHMA 2274234, South Africa 2020, MDR, read-out: MIC): 2 µg/mL (≈ 4.15 µM)
- MIC ([1]; A. baumannii IHMA 2274364, South Africa 2020, MDR, read-out: MIC): 2 µg/mL (≈ 4.15 µM)
- MIC ([1]; A. baumannii IHMA 2275237, Chile 2020, Non-MDR, read-out: MIC): 2 µg/mL (≈ 4.15 µM)
- MIC ([1]; A. baumannii IHMA 2275751, Jordan 2020, MDR, read-out: MIC): 2 µg/mL (≈ 4.15 µM)
- MIC ([1]; A. baumannii IHMA 2316205, United States 2020, MDR, read-out: MIC): 2 µg/mL (≈ 4.15 µM)
- MIC ([1]; MDR n = 50, read-out: MAX (maximum MIC; all strains inhibited)): 4 µg/mL (≈ 8.31 µM)
- MIC50 ([1]; MDR n = 50): 2 µg/mL (≈ 4.15 µM)
- MIC90 ([1]; MDR n = 50): 4 µg/mL (≈ 8.31 µM)
- MIC ([1]; MDR n = 50, read-out: MIN (minimum MIC)): 1 µg/mL (≈ 2.08 µM)
- MIC ([1]; all isolates n = 100, read-out: MAX (maximum MIC; all strains inhibited)): 8 µg/mL (≈ 16.6 µM)
- MIC50 ([1]; all isolates n = 100): 2 µg/mL (≈ 4.15 µM)
- MIC90 ([1]; all isolates n = 100): 4 µg/mL (≈ 8.31 µM)
- MIC ([1]; all isolates n = 100, read-out: MIN (minimum MIC)): 1 µg/mL (≈ 2.08 µM)
- MIC ([1]; non-MDR n = 50, read-out: MAX (maximum MIC)): 8 µg/mL (≈ 16.6 µM)
- MIC50 ([1]; non-MDR n = 50): 2 µg/mL (≈ 4.15 µM)
- MIC90 ([1]; non-MDR n = 50): 4 µg/mL (≈ 8.31 µM)
- MIC ([1]; non-MDR n = 50, read-out: MIN (minimum MIC)): 1 µg/mL (≈ 2.08 µM)
- MAX (maximum MIC; all strains inhibited) ([1]; MDR n = 50): 4 µg/mL
- MAX (maximum MIC; all strains inhibited) ([1]; all isolates n = 100): 8 µg/mL
- MIC ([2]; Haemophilus influenzae, ATCC49247, QC strain H. influenzae ATCC 49247, test date 2021-11-11): 0.25 µg/mL (≈ 0.519 µM)
- MIC ([2]; Haemophilus influenzae, ATCC49247, QC strain H. influenzae ATCC 49247, test date 2021-11-26): 0.06 µg/mL (≈ 0.125 µM)
- MIC ([2]; QC strain H. influenzae ATCC 49247, test date 2021-11-11): 0.5 µg/mL (≈ 1.04 µM)
- MIC ([3]; Haemophilus influenzae, ATCC49766): 0.25 µg/mL (≈ 0.519 µM)
- MIC ([3]; QC strain H. influenzae ATCC 49766, test date 2021-11-26): 0.25 µg/mL (≈ 0.519 µM)
- MIC ([4]; Enterococcus faecalis, ATCC29212): ≤ 0.03 µg/mL
- MIC ([4]; QC strain E. faecalis ATCC 29212, test date 2021-11-26): ≤0,03 µg/mL
- MIC [5]: ≤ 0.03 µg/mL
- MIC ([6]; QC strain S. pneumoniae ATCC 49619, test date 2021-11-26): 0.25 µg/mL (≈ 0.519 µM)
- MIC ([6]; Streptococcus pneumoniae, ATCC49619): 0.25 µg/mL (≈ 0.519 µM)
- MIC [7]: 4 µg/mL (≈ 8.31 µM)
- MIC (QC, repeated tests) [8]: 1 µg/mL (≈ 2.08 µM)
- MIC [9]: 2 µg/mL (≈ 4.15 µM)
- MIC (QC, repeated tests) [10]: 4 µg/mL (≈ 8.31 µM)
- MIC ([10]; ATCC27853, QC strain P. aeruginosa ATCC 27853, test date 2021-11-11): 16 µg/mL (≈ 33.2 µM)
- MIC ([10]; ATCC27853, QC strain P. aeruginosa ATCC 27853, test date 2021-11-26): 8 µg/mL (≈ 16.6 µM)
- MIC ([10]; ATCC27853, read-out: MIC (QC, repeated tests)): 8 µg/mL (≈ 16.6 µM)
